Experimental data published in patent US20050209256A1, “Novel beta-turn mimetics as calcitonin gene related peptide receptor antagonists” (priority 2004, published 2005).

Target: T1, human CGRP receptor (Homo sapiens, UniProt O60894+Q16602)
T1 construct: SK-N-MC cells that endogenously express the human CGRP receptor; endogenous in cells; host or cells: SK-N-MC cells (membrane homogenates)
Assay: Radioligand binding assay, [125I]-CGRP competition on SK-N-MC cell homogenates
Details: Binding data, [125I]-CGRP 40 pM, room temperature
Description: Tissue culture. SK-N-MC cells were grown at 37° C. in 5% CO2 as a monolayer in medium consisting of MEM with Earle's salts and L-glutamine (Gibco) supplemented with 10% fetal bovine serum (Gibco).
Radioligand binding assays. Cells were rinsed twice with phosphate-buffered saline (155 mM NaCl, 3.3 mM Na2HPO4, 1.1 mM KH2PO4, pH 7.4), and incubated for 5-10 min. at 4° C. in hypotonic lysis buffer consisting of 10 mM Tris (pH 7.4) and 5 mM EDTA. Cells were transferred from plates to polypropylene tubes (16×100 mm), homogenized and centrifuged at 32,000×g for 30 min. Pellets were resuspended in buffer consisting of 50 mM Tris (pH 7.4) and 1 mM EDTA, homogenized, and centrifuged again at 32,000×g for 30 min. Pellets were resuspended in 100 mM Tris-Cl pH 7.5, 10 mM MgCl2, 0.1% mammalian protease inhibitor cocktail (Sigma) and stored at −80° C. until needed. On the day of an experiment, homogenates were thawed and homogenized again. Binding of [^125I]-CGRP (NEN) was carried out in buffer containing 50 mM Tris-Cl pH 7.5, 5 mM MgCl2, 0.5% BSA. Homogenates (3.5 μg protein/well) were incubated with competitor compounds (solubilized in 100% DMSO at 100× their final assay concentrations) for one hour at room temperature. Then [^125I]-CGRP was added (40 pM final concentration) and the reaction incubated for one additional hour at room temperature. Assays were stopped by addition of cold wash buffer (20 mM Tris-Cl pH 7.5, 0.1% BSA) immediately followed by filtration over glass fiber filters (Whatman GF/B) previously soaked in 0.5% PEI. Non-specific binding was defined with 100 nM CGRP.

SMILES | IC50 [nM]
CC(=O)c1ccc(NC(=O)N2CCC(=O)N3[C@@H]2CN(CCc2cccc(F)c2)C(=O)[C@@H]3Cc2c(F)c(F)c(F)c(F)c2F)cc1 [Compound 57, (6S,9aS)-8-[2-(3-Fluoro-phenyl)-ethyl]-4,7-dioxo-6-pentafluorophenylmethyl-hexahydro-pyrazino [1,2a]pyrimidine-1-carboxylic acid (4-acetyl-phenyl)-amide] | 500
CC(=O)c1ccc(NC(=O)N2CCC(=O)N3[C@@H](C4CCCCC4)C(=O)N(CCc4ccncc4)C[C@H]23)cc1 [Compound 132, (6S,9aS)-6-Cyclohexyl-4,7-dioxo-8-(2-pyridin-4-yl-ethyl)-hexahydro-pyrazino[1,2-a]pyrimidine-1-carboxylic acid (4-acetyl-phenyl)-amide] | 8000
CC(=O)c1ccc(NC(=O)N2CCC(=O)N3[C@@H]2CN(CCc2cccc(F)c2)C(=O)[C@@H]3Cc2ccc(F)c(F)c2)cc1 [Compound 62, (6S,9aS)-6-(3,4-Difluoro-benzyl)-8-[2-(3-fluoro-phenyl)-ethyl]-4,7-dioxo-hexahydro-pyrazino[1,2-a]pyrimidine-1-carboxylic acid (4-acetyl-phenyl)-amide] | 624
CC(=O)c1ccc(NC(=O)N2CCC(=O)N3[C@@H]2CN(CCc2cccc(F)c2)C(=O)[C@@H]3Cc2cc(F)c(F)c(F)c2)cc1 [Compound 56, (6S,9aS)-8-[2-(3-Fluoro-phenyl)-ethyl]-4,7-dioxo-6-(3,4,5-trifluoro-benzyl)-hexahydro-pyrazino[1,2-a]pyrimidine-1-carboxylic acid (4-acetyl-phenyl)-amide] | 665
CC(=O)c1ccc(NC(=O)N2CCC(=O)N3[C@@H](c4cccc(F)c4F)C(=O)N(CCc4cccc(F)c4)C[C@H]23)cc1 [Compound 154, (6S,9aS)-6-(2,3-Difluoro-phenyl)-8-[2-(3-fluoro-phenyl)-ethyl]-4,7-dioxo-hexahydro-pyrazino[1,2-a]pyrimidine-1-carboxylic acid (4-acetyl-phenyl)-amide] | 363
CS(=O)(=O)c1ccc(NC(=O)N2CCC(=O)N3[C@@H](C4CCCCC4)C(=O)N(CCc4ccccc4)C[C@H]23)cc1 [Compound 17, (6S,9aS)-6-Cyclohexyl-4,7-dioxo-8-phenethyl-hexahydro-pyrazino[1,2a]pyrimidine-1-carboxylic acid (4-methanesulfonyl-phenyl)-amide] | 417
CSCC[C@H]1C(=O)N(CCc2cccc(F)c2)C[C@@H]2N(C(=O)Nc3ccc(C(C)=O)cc3)CCC(=O)N21 [Compound 24, (6S,9aS)-8-[2-(3-Fluoro-phenyl)-ethyl]-6-(2-methylsulfanyl-ethyl)-4,7-dioxo-hexahydro-pyrazino[1,2-a]pyrimidine-1-carboxylic acid (4-acetyl-phenyl)-amide] | 213
CC(=O)c1ccc(NC(=O)N2CCC(=O)N3[C@@H](c4ccc(F)c(F)c4)C(=O)N(CCc4ccccc4)C[C@H]23)cc1 [Compound 59, (6S,9aS)-6-(3,4-Difluoro-phenyl)-4,7-dioxo-8-phenethyl-hexahydro-pyrazino[1,2-a]pyrimidine-1-carboxylic acid (4-acetyl-phenyl)-amide] | 271
CCSCC1C(=O)N(CCc2cccc(F)c2)C[C@@H]2N(C(=O)Nc3ccc(C(C)=O)cc3)CCC(=O)N12 (stereo in doubt) [Compound 35, (6S,9aS)-6-Ethylsulfanylmethyl-8-[2-(3-fluoro-phenyl)-ethyl]-4,7-dioxo-hexahydro-pyrazino[1,2-a]pyrimidine-1-carboxylic acid (4-acetyl-phenyl)-amide] | 244
CC(=O)c1ccc(OC(=O)N2CCC(=O)N3[C@@H](C4CCCCC4)C(=O)N(CCc4ccccc4)C[C@H]23)cc1 [Compound 149, (6S,9aS)-6-Cyclohexyl-4,7-dioxo-8-phenethyl-hexahydro-pyrazino[1,2-a]pyrimidine-1-carboxylic acid 4-acetyl-phenyl ester] | 8560
CC(=O)c1ccc(NC(=O)N2CCC(=O)N3[C@@H](C4CCCCC4)C(=O)N(CCc4ccc(F)cc4)C[C@H]23)cc1 [Compound 122, (6S,9aS)-6-Cyclohexyl-8-[2-(4-fluoro-phenyl)-ethyl]-4,7-dioxo-hexahydro-pyrazino[1,2-a]pyrimidine-1-carboxylic acid (4-acetyl-phenyl)-amide] | 890
CC(=O)c1ccc(NC(=O)N2c3cc4ccccc4cc3C(=O)N3[C@@H](C4CCOCC4)C(=O)N(CCc4cccc(F)c4)C[C@H]23)cc1 [Compound 53, (4S,12S)-2-[2-(3-Fluoro-phenyl)-ethyl]-3,5-dioxo-4-(tetrahydro-pyran-4-yl)-1,3,4,12a-tetrahydro-2H,5H-2,4a,12-triaza-naphthacene-12-carboxylic acid (4-acetyl-phenyl)-amide] | 2970
CC[C@H](C)[C@H]1C(=O)N(CCc2cccc(F)c2)C[C@@H]2N(C(=O)Nc3ccc(C(C)=O)cc3)CCC(=O)N12 (stereo in doubt) [Compound 47, (6S,9aS)-6-(1R-Methyl-propyl)-8-[2-(3-fluoro-phenyl)-ethyl]-(S,S)-4,7-dioxo-hexahydro-pyrazino[1,2-a]pyrimidine-1-carboxylic acid (4-acetyl-phenyl)-amide] | 192
NC(=O)c1ccc(NC(=O)N2CCC(=O)N3[C@@H]2CN(CCc2ccccc2)C(=O)[C@@H]3CC2CCCCC2)cc1 [Compound 111, (6S,9aS)-6-Cyclohexylmethyl-4,7-dioxo-8-phenethyl-hexahydro-pyrazino[1,2-a]pyrimidine-1-carboxylic acid (4-carbamoyl-phenyl)-amide] | 12000
CCCC[C@H]1C(=O)N(CCc2cccc(F)c2)C[C@@H]2N(C(=O)Nc3ccc(C(C)=O)cc3)CCC(=O)N21 [Compound 26, (6S,9aS)-6-Butyl-8-[2-(3-fluoro-phenyl)-ethyl]-4,7-dioxo-hexahydro-pyrazino[1,2-a]pyrimidine-1-carboxylic acid (4-acetyl-phenyl)-amide] | 117
CC(=O)c1ccc(NC(=O)N2CCC(=O)N3C(CS(=O)(=O)Cc4ccccc4)C(=O)N(CCc4cccc(F)c4)C[C@H]23)cc1 (stereo in doubt) [Compound 45, (6S,9aS)-8-[2-(3-Fluoro-phenyl)-ethyl]-4,7-dioxo-6-phenylmethanesulfonylmethyl-hexahydro-pyrazino[1,2-a]pyrimidine-1-carboxylic acid (4-acetyl-phenyl)-amide] | 1940
CC(=O)c1ccc(NC(=O)N2CCC(=O)N3[C@@H]2CN(CCc2cccc(F)c2)C(=O)[C@@H]3Cc2cc(Br)c(O)c(Br)c2)cc1 [Compound 34, (6S,9aS)-6-(3,5-Dibromo-4-hydroxy-benzyl)-8-[2-(3-fluoro-phenyl)-ethyl]-4,7-dioxo-hexahydro-pyrazino[1,2-a]pyrimidine-1-carboxylic acid (4-acetyl-phenyl)-amide] | 1170
CC(=O)c1ccc(NC(=O)N2CCC(=O)N3[C@@H]2CN(CCc2cccc(F)c2)C(=O)[C@@H]3Cc2ccc(F)cc2)cc1 [Compound 58, (6S,9aS)-6-(4-Fluoro-benzyl)-8-[2-(3-fluoro-phenyl)-ethyl]-4,7-dioxo-hexahydro-pyrazino[1,2-a]pyrimidine-1-carboxylic acid (4-acetyl-phenyl)-amide] | 814
CSc1ccc(NC(=O)N2CCC(=O)N3[C@@H](C4CCCCC4)C(=O)N(CCc4ccccc4)C[C@H]23)cc1 [Compound 19, (6S,9aS)-6-Cyclohexyl-4,7-dioxo-8-phenethyl-hexahydro-pyrazino[1,2-a]pyrimidine-1-carboxylic acid (4-methylsulfanyl-phenyl)-amide] | 8000
CC(=O)c1ccc(NC(=O)N2CCC(=O)N3[C@@H](C4CCCCC4)C(=O)N(CCc4cccc(F)c4)C[C@H]23)cc1 [Compound 48, (6S,9aS)-6-Cyclohexyl-8-[2-(3-fluoro-phenyl)-ethyl]-4,7-dioxo-hexahydro-pyrazino[1,2-a]pyrimidine-1-carboxylic acid (4-acetyl-phenyl)-amide] | 115
CC(=O)c1ccc(NC(=O)N2CCC(=O)N3[C@@H](C4CCCCC4)C(=O)N(CCc4cccnc4)C[C@H]23)cc1 [Compound 140, (6S,9aS)-6-Cyclohexyl-4,7-dioxo-8-(2-pyridin-3-yl-ethyl)-hexahydro-pyrazino[1,2-a]pyrimidine-1-carboxylic acid (4-acetyl-phenyl)-amide] | 2440
CC(=O)c1ccc(NC(=O)N2CCC(=O)N3[C@@H]2CN(CCc2cccc(F)c2)C(=O)[C@@H]3CCC(N)=O)cc1 [Compound 40, (6S,9aS)-6-(2-Carbamoyl-ethyl)-8-[2-(3-fluoro-phenyl)-ethyl]-4,7-dioxo-hexahydro-pyrazino[1,2-a]pyrimidine-1-carboxylic acid (4-acetyl-phenyl)-amide] | 2360
